{"source": "patent US12433844B2", "about": "“Preparation method and application of tumor microparticles encapsulating metabolic inhibitors” (Union Hospital, Tongji Medical College, Huazhong University …, priority 2022, dated 2025)", "system": "lung metastasis", "test": "Lung metastatic nodules count (H&E staining)", "format": "in vivo, mice", "conditions": "compared to the PBS intervention group", "method": "In order to explore the anti-tumor effect of TMP-F combined with chemotherapy, two doses of cisplatin chemotherapy (Cis) are added during the intervention process. […] In addition, the lungs of mice are extracted, hematoxylin-eosin (H&E) staining is performed on the lungs of mice, and the number of lung metastatic nodules under the light microscope are observed and counted.", "data": [{"smiles": "N.N.[Cl][Pt][Cl]", "note": "[chemotherapy alone, cisplatin]", "values": [{"measurement": "lung metastasis (number of lung metastatic nodules)", "result": "inhibits the lung metastasis"}]}]}
